# Experimental data reported in US6803367B2, “Substance for inducing apoptosis” (Takara Shuzo Co., Ltd., priority 1997, dated 2004).
# Tests used:
# Format in all cases: cell-based, human
# [1] = tested on: HL-60 cells; assay: DNA fragmentation in HL-60 cells by agarose gel electrophoresis; settings: after incubation for 15 hours; concentration of the aqueous solution added (0.5 ml to 4.5 ml suspension)
# Method: (§1) HL-60 cells (ATCC CCL240) which were incubated at 37° C. in an RPMI 1640 medium (manufactured by Nissui) containing 10% of fetal calf serum (manufactured by Gibco) treated at 56° C. for 30 minutes were suspended in the above medium to make the concentration 2.5×10^5 cells/4.5 ml. To this suspension was added 0.5 ml of 10 μM, 20 μM, 40 μM or 80 μM aqueous solution of S-1127 followed by incubating at 37° C. in the presence of 5% carbon dioxide gas for 15 hours or 39 hours.
# (§2) Incidentally, such a phenomenon was not observed in the water-added control section.
# [2] = tested on: HL-60 cells; assay: Viable and dead cell counting of HL-60 cells by Trypan Blue staining
# Method: as §1, §2
# In FIG. 31, ◯ indicates the case where 10 μM of S-1127 was added; Δ indicates the case where 20 μM of S-1127 was added; □ indicates the case where 40 μM of S-1127 was added; X indicates the case where 80 μM of S-1127 was added and ● indicates the control where water was added.
# [3] = tested on: HL-60 cells; assay: Observation of apoptotic body in HL-60 cells under a microscope
# Method: (§3) To each of the wells of a 96-well microtiter plate was added 1000, 500, 250, 125, 62.5 or 31.3 μg/ml aqueous solution of imidazolylcyclopentenone obtained in Example 1-(2) or 10 μl of water as a control. HL-60 (ATCC CCL-240) was suspended in an RPMI 1640 medium containing 10% of fetal calf serum to make the concentration 5×10^4 cells/ml and each 90 μl thereof was placed in each well of the above-mentioned microtiter plate and incubated at 37° C. for 48 hours in the presence of 5% carbon dioxide. Incubation was conducted for four hours more after addition of 10 μl of a solution (5 mg/ml) of 3-(4,5-dimethylthiazol-2-yl)-2,5-diphenyltetrzolium bromide (MTT; manufactured by Sigma) in a phosphate-buffered saline solution and the state of growth of the cells was observed under a microscope. Further, 100 μl of 2-propanol containing 0.04N hydrochloric acid was added followed by stirring and an absorbance at 590 nm was measured.
# As a result of observation under a microscope, production of apoptotic body was confirmed.
# Main peaks and the fractions between them were collected and evaporated to dryness in vacuo, each of the fractions was diluted to an extent of 3- or 9-fold with water and their activity of growth inhibition of HL-60 cells was measured by the same way as in Example 3 except that 5 μl of the sample were added to each well and the incubation was conducted for 18 hours. […]
# [4] = tested on: HL-60 cells; assay: Growth inhibition of HL-60 cells (MTT, 96-well microtiter plate); settings: for activity of growth inhibition of cancer cells: 5 μl per well, 18 hours incubation
# Method: as §3
# The non-adsorbed fraction of Example 4 was adjusted to pH 3 with HCl and heated at 121° C. for 1 hour. The resulting heat-treated solution was diluted with aseptic water to an extent of 2-, 4-, 8-, 16-, 32- or 64-fold and its activity of growth inhibition of HL-60 cells was measured by the same way as in Example 3.
# Main peaks and the fractions between them were collected and evaporated to dryness in vacuo, each of the fractions was diluted to an extent of 3- or 9-fold with water and their activity of growth inhibition of HL-60 cells was measured by the same way as in Example 3 except that 5 μl of the sample were added to each well and the incubation was conducted for 18 hours. […] Production of apoptotic body was confirmed as well.
# The growth inhibiting activity of a 1 mM aqueous solution of MC2 and a 350 μM aqueous solution of HMC2 obtained in Example 10 to HL-60 cells was measured by the same way as in Example 3.
compound,measurement,setting,value
"O=CC(=CCc1ccc(O)cc1)c1ccc(O)cc1 [S-1127, 2,4-bis(p-hydroxyphenyl)-2-butenal]",concentration at which fragmentation of DNA was noted,[1],≥ 20 µM
same,living cell numbers compared with the water-added control section,"[2]; 20 μM added, after incubation of 39 hours",significantly decreased
same,concentration at which cells were killed,"[2]; after incubation of 15 hours, concentration of the aqueous solution added (0.5 ml to 4.5 ml suspension)",≥ 40 µM
"COC1=CC(OC)CC1=O (stereo not shown) [MC2, 2,4-dimethoxy-2-cyclopenten-1-one]",apoptotic body under an optical microscope,[3]; final concentration 100 μM,observed
same,growth of the cells,"[4]; 1 mM solution added, final concentration 100 μM, HL-60",inhibited
"O=C1CC(n2ccnc2)C=C1O (stereo not shown) [imidazolylcyclopentenone, 2-hydroxy-4-(1-imidazolyl)-2-cyclopenten-1-one]",concentration at which the growth of HL-60 cells was completely inhibited,"[4]; final concentration, 48 hours incubation, MTT",6.25 µg/mL
"CC(=O)Nc1ccc(O)c(O)c1O [N-(2,3,4-trihydroxyphenyl)acetamide]",production of apoptotic body,"[3]; Example 6, 18 hours incubation",confirmed
same,activity of growth inhibition of cancer cells,"[4]; 3-fold diluted solution of the HPLC fraction, HL-60",activity of growth inhibition of cancer cells was noted
same,activity of growth inhibition of cancer cells,"[4]; undiluted aqueous solution of the HPLC fraction, HL-60",activity of growth inhibition of cancer cells was noted
"CC(=O)N[C@H]1C(O)O[C@H](CO)[C@H](O)[C@@H]1O (stereo partly shown) [N-acetylgalactosamine, reference compound]",growth of the cells versus water-added control section,"[4]; 4 mg/ml added, HL-60",no difference
